The values that follow come from paper PMC6306559 (Pharmacology Research & Perspectives, 2018).

The term EC50 denotes the concentration at which the effect is half-maximal. A word on the IC50: it is the midpoint of a concentration-inhibition curve.

Structures are written as SMILES.

Experiment [1] concerns untransfected COS‐7 cells. Nature of the experiment: Phenylephrine-induced CRE reporter assay. The class given is cell-based. The following applies: 50 μmol/L diazepam; cells do not express α1A‐AR and α1B‐AR. On the procedure: (§1) cAMP response element (CRE) response assays were performed as previously described by transfecting WT α1A‐ and α1B‐AR stably expressing COS‐7 cells, parental COS‐7 cells or parental HEK293T cells, with a β‐galactosidase expression plasmid under the control of the CRE promoter.10 CRE reporter‐transfected cells were seeded into 96‐well culture plates for 24 hours before treatment with various compounds for 6 hours at 37°C 5% CO2. Media was aspirated, and the cells frozen at −80°C for at least 24 hours before measurement of cellular β‐galactosidase expression using chlorophenol red‐β‐D‐galactopyranoside. Ligands were made up in 0.5% FBS DMEM media. […] HEK293T cells transiently transfected with GPR68 and pCRE were stimulated with sodium bicarbonate‐free, low glucose DMEM, supplemented with 20 mmol/L HEPES and 0.5% FBS at pH 6.8, 7.0, 7.2, 7.4, and 7.8. The pH was adjusted at 37°C with NaOH. Cells were incubated for 6 hours at 37°C, in a room atmosphere incubator.

The subject of experiment [2] is α1B‐AR expressing COS‐7 cells. Nature of the experiment: Phenylephrine-induced CRE reporter assay. Type of experiment: cell-based. On the technique in general: Reporter assays use an easily measured gene product as a stand-in for the process of interest.
Experiment [3] has as its system purified guinea pig PDE‐4. The settings on record: cited from earlier work.
For the next experiment, the system named is guinea pig PDE‐4. The settings on record: cited from earlier work.
Another experiment has as its target T1, WT α1A‐AR (Homo sapiens, UniProt P35348).
T1 construct: expressed in transfected cells
T1 sequence (P35348 1-466): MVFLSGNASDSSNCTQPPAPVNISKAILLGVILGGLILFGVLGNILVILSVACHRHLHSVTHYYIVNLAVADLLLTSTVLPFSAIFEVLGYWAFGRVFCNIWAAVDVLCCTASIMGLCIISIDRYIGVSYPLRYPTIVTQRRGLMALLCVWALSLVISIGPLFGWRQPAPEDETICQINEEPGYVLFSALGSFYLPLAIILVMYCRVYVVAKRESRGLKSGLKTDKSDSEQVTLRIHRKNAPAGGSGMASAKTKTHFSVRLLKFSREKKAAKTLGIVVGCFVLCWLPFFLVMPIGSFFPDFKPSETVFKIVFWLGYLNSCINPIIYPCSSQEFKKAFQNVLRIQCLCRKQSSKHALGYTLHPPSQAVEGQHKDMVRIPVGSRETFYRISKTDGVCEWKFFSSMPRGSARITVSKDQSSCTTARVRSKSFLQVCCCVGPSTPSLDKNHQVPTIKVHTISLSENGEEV
Nature of the experiment: Intracellular Ca2+ mobilization in stably expressing COS‐7 cells. The class given is cell-based. The following applies: 0 to 50 μmol/L; absence or presence of 10 nmol/L phenylephrine. A general note: Calcium assays in cells follow changes in intracellular calcium, usually with a dye or a luminescent sensor.

For experiment [4], the system named is untransfected human embryonic kidney 293T cells. Nature of the experiment: Forskolin-induced CRE reporter assay. Type of experiment: cell-based. The following applies: 50 μmol/L diazepam.
A further experiment deals with α1B‐AR #15. Nature of the experiment: QAPB competition binding at purified thermostabilized receptor on paramagnetic beads.
In experiment [5] the test system is untransfected HEK293T cells. Nature of the experiment: Isoprenaline-induced CRE reporter assay. Type of experiment: cell-based, human. The following applies: 50 μmol/L diazepam.
Another experiment deals with T2, WT α1B‐AR (Homo sapiens, UniProt P35368).
T2 construct: COS‐7 cells stably expressing unmodified α1B‐AR; expressed in transfected cells
T2 sequence (P35368 1-520): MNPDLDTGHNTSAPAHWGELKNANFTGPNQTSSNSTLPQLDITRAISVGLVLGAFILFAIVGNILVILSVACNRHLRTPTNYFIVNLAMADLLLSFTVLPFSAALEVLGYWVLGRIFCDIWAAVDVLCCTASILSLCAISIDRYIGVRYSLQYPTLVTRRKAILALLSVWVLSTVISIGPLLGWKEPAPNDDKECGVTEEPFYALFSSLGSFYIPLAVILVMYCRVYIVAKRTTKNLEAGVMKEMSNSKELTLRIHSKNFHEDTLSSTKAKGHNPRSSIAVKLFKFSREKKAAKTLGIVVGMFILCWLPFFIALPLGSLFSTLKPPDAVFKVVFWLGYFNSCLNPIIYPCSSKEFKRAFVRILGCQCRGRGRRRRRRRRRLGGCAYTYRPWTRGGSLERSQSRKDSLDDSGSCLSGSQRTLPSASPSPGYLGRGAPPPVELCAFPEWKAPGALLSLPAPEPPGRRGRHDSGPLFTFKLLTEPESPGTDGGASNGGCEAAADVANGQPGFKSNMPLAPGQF
Nature of the experiment: Intracellular Ca2+ mobilization in stably expressing COS‐7 cells. Type of experiment: cell-based. The settings on record: 0 to 50 μmol/L; absence or presence of 10 nmol/L phenylephrine.

A further experiment deals with T3, GPR68 (Homo sapiens, UniProt Q15743).
T3 construct: expressed in transfected cells; host or cells: HEK293T (transient)
Nature of the experiment: GPR68 pH-stimulated CRE reporter assay. The class given is cell-based. The settings on record: pH 7.2; HEK293T cells transfected with GPR68. On the procedure:
as §1, with “Cells were incubated for 6 hours at 37°C, in a room atmosphere incubator.” left out
Nuclear magnetic resonance (NMR) data were processed in Topspin 3.5 using squared cosine‐bells in both dimensions and zero‐filled once, prior to Fourier‐transformation. All other data was analyzed with Graphpad prism 7 (San Diego, CA, USA). […] For whole cell QAPB binding, the mean QAPB fluorescence intensity (MFI) of at lease 5000 cells was measured, and plotted against QAPB concentration. Values reported represent the mean and SD of at least three K d values calculated from separate measurements. […]

In experiment [6] the test system is α1A‐AR expressing COS‐7 cells. Nature of the experiment: Phenylephrine-induced CRE reporter assay. Type of experiment: cell-based. The protocol:
as §1
Nuclear magnetic resonance (NMR) data were processed in Topspin 3.5 using squared cosine‐bells in both dimensions and zero‐filled once, prior to Fourier‐transformation. All other data was analyzed with Graphpad prism 7 (San Diego, CA, USA). All error bars are standard deviation (SD) from three independent experiments. Competition binding assays were performed in duplicate wells. Curves were fit with one site nonlinear regression. For whole cell QAPB binding, the mean QAPB fluorescence intensity (MFI) of at lease 5000 cells was measured, and plotted against QAPB concentration. Values reported represent the mean and SD of at least three K d values calculated from separate measurements. Ca^2+ mobilization data were performed in triplicate wells and normalized to the peak response elicited by 3 μmol/L ionomycin. CRE assay was conducted in triplicate, and data were normalized to the response elicited by the vehicle. Curves were fitted with three variable nonlinear regressions. For GPR68 assays, responses were normalized to CRE response at pH 6.8 (100%) and pH 7.8 (0%).

[7] abbreviates: 10 nmol/L QAPB, 2 hours, benzodiazepines up to 200 μmol/L.
Setting [8] is: 2.5 mmol/L phenylephrine, increasing diazepam.

T3 sequence (Q15743 whole entry, species assumed): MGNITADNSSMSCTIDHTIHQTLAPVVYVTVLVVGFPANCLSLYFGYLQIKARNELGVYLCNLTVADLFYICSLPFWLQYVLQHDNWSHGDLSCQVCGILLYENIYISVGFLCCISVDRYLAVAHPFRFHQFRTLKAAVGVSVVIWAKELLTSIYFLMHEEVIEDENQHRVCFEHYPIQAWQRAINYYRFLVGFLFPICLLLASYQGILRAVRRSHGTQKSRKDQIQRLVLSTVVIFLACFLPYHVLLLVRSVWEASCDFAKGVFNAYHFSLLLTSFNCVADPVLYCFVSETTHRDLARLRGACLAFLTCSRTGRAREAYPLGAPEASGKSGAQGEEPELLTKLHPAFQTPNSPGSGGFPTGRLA

As to `CN1C(=O)CN=C(c2ccccc2)c2cc(Cl)ccc21` [diazepam], the “Modulation of phenylephrine‐induced CRE response” value in experiment [1] was “positively modulated”. Moreover, the concentration for a half-maximal effect (EC50) in experiment [2] (COS-7, 800 nmol/L phenylephrine, mean ± SD from three experiments, read-out: EC50 for modulating the phenylephrine CRE response) is 7.8 ± 1.9 µM; in [6] (COS-7, 200 nmol/L phenylephrine, mean ± SD from three experiments, read-out: EC50 for modulating the phenylephrine CRE response), 6.5 ± 4.8 µM. In addition, the “CRE response in the absence of phenylephrine” value in [2] (diazepam alone) and in [6] (diazepam alone) was “did not induce a CRE response” in each case. In addition, the “Competition with 3H‐rolipram” value in experiment [3] is on record as “competes with ^3H‐rolipram”. Further, the IC50 in the experiment with guinea pig PDE‐4 was 9 µM. In addition, the “Effect on Ca2+ mobilization” value at WT α1A‐AR and at WT α1B‐AR was “had no effect” each time. Also, the “Modulation of forskolin potency in CRE assay” value in [4] is “positively modulated the potency”. Also, the QAPB displacement result with α1B‐AR #15 (setting [7]) and in the experiment with α1A‐AR A4 (setting [7]) was “neither diazepam nor lorazepam displaced QAPB at either receptor” throughout. The “Cooperativity with phenylephrine in QAPB displacement” value in the experiment with α1B‐AR #15 (setting [8]) was “No cooperativity between diazepam and phenylephrine was observed”; in the experiment on α1A‐AR A4 (setting [8]), “No cooperativity between diazepam and phenylephrine was observed”. Also, the “Modulation of isoprenaline CRE efficacy” value in [5] is “significantly increased the CRE efficacy of isoprenaline”. Besides, the “Modulation of GPR68 CRE response” value at GPR68 was “did not significantly increase the CRE response of GPR68”. For the same molecule, the “Modulation of phenylephrine potency in CRE assay” value in [6] (50 μmol/L diazepam) is “positively modulated the potency of phenylephrine”.
